Reference: EP4775571A1, “LPAR1 ANTAGONIST AND USE THEREOF” (Haisco Pharmaceutical Group Co., Ltd., priority 2023, dated 2025)
Read-outs that look alike come from different tables or passages of the source.

Assays:
LPAR1 = molecular target: T1, LPAR1 (Homo sapiens, UniProt Q92633); assay: Cell calcium flux assay (antagonist mode, LPA at EC80, FLIPR); type: cell-based
T1 construct: expressed in transfected cells; host or cells: CHO (CHO-LPA1 cells)
Method: • 1) The test compound was diluted to a 400X stock solution with DMSO in a 384-well plate. • 2) 1 µl of compound solution from step 1 was transferred into 39 ul of assay buffer to prepare a 10X working solution in a 384-well plate using a Bravo automated liquid handling platform. • 3) CHO-LPA1 cells were cultured in F12 medium (10% FBS). • 4) When cells reached 80% confluence, the cells were dissociated using 0.25% trypsin-EDTA. • 5) Cell density was determined and the cells were diluted to 4x10e5/ml using F12 (10% FBS). • 6) 30 µl of the cell suspension was dispensed into a 384-well plate (corning 3764#) using a multidrop automated dispenser, resulting in 12,000 cells per well. The plate was incubated at 37°C with 5% CO2 for 18-20 hours. • 7) The medium was replaced with 25 uL of serum-free medium and incubated overnight. • 8) 10 ul of 3.5X loading dye was added to each well of the cell plate. The plate was incubated in the dark at 37°C with 5% CO2 for 0.5-1 hours. • 9) After incubation, 5 µl of the 10X working solution from step 2 was transferred to the cell plate. • 10) The cell plate was incubated in the dark at 25°C for 15 minutes, and then the calcium signals were read. • 11) A 5X agonist (LPA) working solution in 1X HBSS+20 mM HEPES+0.1% BSA was prepared in a 384-well assay plate (greiner 784075#), with at least 20 µl per well. The agonist concentration used in this assay was determined based on the dose-response curve from a prior agonist mode experiment, with the EC80 value serving as the final agonist concentration. • 12) Data were read and saved using FLIPR at room temperature with the specified settings. • 13) The signal values were plotted against compound concentrations, and the curve fitting was performed and the IC50 values were calculated using nonlinear regression analysis in GraphPad Prism software.
IC50 values are represented by grades A, B, C, and D, where A represents 0 < IC50 ≤ 10 nM, B represents 10 nM < IC50 ≤ 50 nM, C represents 50 nM < IC50 ≤ 100 nM, and D represents IC50 > 100 nM. Table 1 Antagonistic activity of the compounds of the present invention against LPAR1

[1] = Pharmacokinetic test in mice; type: in vivo, C57 mice; conditions: for pharmacokinetic characteristics in mice: conclusion in words; for C0 or Cmax / AUC(0-t) / clearance / Vd / bioavailability: mice, plasma; for AUC(0-t) / clearance / Vd / bioavailability: mouse; for Vd: read-out: Vdss
Method: 2.1 Experimental animals: Male C57 mice, 20-25 g, 6 mice/compound, purchased from Chengdu Ddossy Experimental Animals Co., Ltd.
2.2 Experimental design: On the day of the experiment, the C57 mice were randomly grouped according to their body weights. The animals were fasted with water available for 12-14 h one day before the administration, and were fed 4 h after the administration. Table 2. Administration information
Before and after administration, 0.06 mL of blood was taken from the orbit under isoflurane anaesthesia and placed in an EDTAK2 centrifuge tube. The tube was centrifuged at 5000 rpm at 4°C for 10 min, and plasma was collected. The blood collection time points for the intravenous administration group and oral gavage administration group were: 0 min, 5 min, 15 min, 30 min, 1 h, 2 h, 4 h, 6 h, 8 h, and 24 h. Before analysis and detection, all samples were stored at -80°C, and the samples were quantitatively analysed by LC-MS/MS. Table 3. Pharmacokinetic parameters of test compounds in plasma of mice

[2] = Pharmacokinetic test in rats; type: in vivo, SD rats; conditions: rats, plasma
Method: 3.1. Experimental animals: Male SD rats, about 220 g, 6-8 weeks old, 6 rats/compound, purchased from Chengdu Ddossy Experimental Animals Co., Ltd.
3.2. Experimental design: On the day of the experiment, the SD rats were randomly grouped according to their body weights. The animals were fasted with water available for 12-14 h one day before the administration, and were fed 4 h after the administration. Table 4. Administration information
Before and after administration, 0.15 mL of blood was taken from the orbit under isoflurane anaesthesia and placed in an EDTAK2 centrifuge tube. The tube was centrifuged at 5000 rpm at 4°C for 10 min, and plasma was collected. Before analysis and detection, all samples were stored at -80°C, and the samples were quantitatively analysed by LC-MS/MS. Table 5. Pharmacokinetic parameters of test compound in plasma of rats

[3] = CHO-LPA1 cells, calcium flux, grades, read-out: LPAR1 IC50
[4] = antagonistic activity against the LPAR1 receptor, read-out: IC50 values

T1 sequence (Q92633 whole entry): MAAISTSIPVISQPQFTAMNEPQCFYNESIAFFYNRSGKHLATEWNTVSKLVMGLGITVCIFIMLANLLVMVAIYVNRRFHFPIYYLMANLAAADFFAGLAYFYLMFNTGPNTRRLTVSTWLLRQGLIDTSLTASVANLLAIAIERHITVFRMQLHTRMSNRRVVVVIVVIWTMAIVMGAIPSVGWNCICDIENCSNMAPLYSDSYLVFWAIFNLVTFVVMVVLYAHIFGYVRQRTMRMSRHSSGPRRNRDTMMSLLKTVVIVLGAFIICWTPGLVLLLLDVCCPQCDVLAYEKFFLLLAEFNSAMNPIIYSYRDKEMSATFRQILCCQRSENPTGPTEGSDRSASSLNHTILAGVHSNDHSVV

Compound: Cc1nc(-c2nnn(C)c2COC(=O)N(C)CCOC(F)F)ccc1O[C@H]1CCC[C@H](C(=O)O)C1 [Compound 27]
- IC50 (LPAR1; [3]): < 10 nM

Compound: C=C1CC(N(C)C(=O)OCc2c(-c3ccc(OCC4C(C(=O)O)C4(F)F)c(C)n3)nnn2C)C1 (single isomer, unassigned) [Compound 32-4]
- IC50 (LPAR1; [3]): < 10 nM

Compound: C=C1CC(N(C)C(=O)OCc2c(-c3ccc(OCC4(CC(=O)O)CC4)c(C)n3)nnn2C)C1 [Compound 36]
- IC50 (LPAR1; [3]): < 10 nM

Compound: CC=C1CC(N(C)C(=O)OCc2c(-c3ccc(O[C@H]4CCC[C@H](C(=O)O)C4)c(C)n3)nnn2C)C1 (stereo partly shown) [Compound 7]
- IC50 (LPAR1; [3]): < 10 nM
- IC50 (LPAR1; [4]): 2 nM

Compound: C=C1CC(CN(C)C(=O)OCc2c(-c3ccc(O[C@H]4CCC[C@H](C(=O)O)C4)c(C)n3)nnn2C)C1 [Compound 5]
- IC50 (LPAR1; [3]): < 10 nM
- IC50 (LPAR1; [4]): 2 nM

Compound: C=C1CC(COC(=O)NCc2c(-c3ccc(O[C@H]4CCC[C@H](C(=O)O)C4)c(C)n3)nnn2C)C1 [Compound 11]
- IC50 (LPAR1; [3]): < 10 nM

Compound: Cc1nc(-c2nnn(C)c2CNC(=O)OCC2CC(=C(F)F)C2)ccc1O[C@H]1CCC[C@H](C(=O)O)C1 (stereo partly shown) [Compound 23]
- IC50 (LPAR1; [3]): < 10 nM

Compound: Cc1nc(-c2nnn(C)c2COC(=O)N(C)C2CC(=C(F)F)C2)ccc1O[C@H]1CCC[C@H](C(=O)O)C1 (stereo partly shown) [Compound 12]
- IC50 (LPAR1; [3]): < 10 nM
- IC50 (LPAR1; [4]): 2 nM
- pharmacokinetic characteristics in mice [1]: excellent pharmacokinetic characteristics
- C0 or Cmax ([1]; i.g. (3 mg/kg)): 581 ± 18 ng/mL
- C0 or Cmax ([1]; i.v. (1 mg/kg)): 1938 ± 258 ng/mL
- AUC(0-t) ([1]; iv, i.v. (1 mg/kg)): 962 ± 131 ng·h/mL
- clearance ([1]; iv, i.v. (1 mg/kg)): 17.5 ± 2.4 mL/min/kg
- Vd ([1]; iv, i.v. (1 mg/kg)): 2.57 ± 0.23 L/kg
- AUC(0-t) ([1]; po, i.g. (3 mg/kg)): 1450 ± 81 ng·h/mL

Compound: C=C1CC(CN(C)C(=O)OCc2c(-c3ccc(NC(=O)C4C(C(=O)O)C4(F)F)c(C)n3)nnn2C)C1 (single isomer, unassigned) [Compound 35-2]
- IC50 (LPAR1; [3]): < 10 nM

Compound: Cc1nc(-c2nnn(C)c2COC(=O)N(C)CCOC(F)(F)F)ccc1O[C@H]1CCC[C@H](C(=O)O)C1 [Compound 14]
- IC50 (LPAR1; [3]): < 10 nM

Compound: Cc1nc(-c2nnn(C)c2COC(=O)N(C)CCSC(F)(F)F)ccc1O[C@H]1CCC[C@H](C(=O)O)C1 [Compound 28]
- IC50 (LPAR1; [3]): < 10 nM

Compound: C=C1C[C@H](Oc2ccc(-c3nnn(C)c3COC(=O)N(C)CCC)nc2C)C[C@@H](C(=O)O)C1 [Compound 24]
- IC50 (LPAR1; [3]): < 10 nM

Compound: CCCN(C)C(=O)OCc1c(-c2ccc(O[C@H]3CC(=C(F)F)C[C@H](C(=O)O)C3)c(C)n2)nnn1C [Compound 38]
- IC50 (LPAR1; [3]): < 10 nM

Compound: Cc1nc(-c2nnn(C)c2COC(=O)N(C)[C@H]2C[C@H](OC(F)F)C2)ccc1O[C@H]1CCC[C@H](C(=O)O)C1 [Compound 40]
- IC50 (LPAR1; [3]): < 10 nM

Compound: Cc1nc(-c2nnn(C)c2COC(=O)N(C)[C@H]2C[C@@H](OC(F)F)C2)ccc1O[C@H]1CCC[C@H](C(=O)O)C1 [Compound 39]
- IC50 (LPAR1; [3]): < 10 nM

Compound: C=C1CC(N(C)C(=O)OCc2c(-c3ccc(O[C@H]4CCC[C@H](C(=O)O)C4)c(C)n3)nnn2C)C1 [Compound 4]
- IC50 (LPAR1; [3]): < 10 nM
- IC50 (LPAR1; [4]): 2 nM
- pharmacokinetic characteristics in mice [1]: excellent pharmacokinetic characteristics
- C0 or Cmax ([1]; i.g. (3 mg/kg)): 687 ± 331 ng/mL
- C0 or Cmax ([1]; i.v. (1 mg/kg)): 1066 ± 134 ng/mL
- AUC(0-t) ([1]; iv, i.v. (1 mg/kg)): 510 ± 95 ng·h/mL
- clearance ([1]; iv, i.v. (1 mg/kg)): 33.2 ± 5.6 mL/min/kg
- Vd ([1]; iv, i.v. (1 mg/kg)): 5.11 ± 1 L/kg
- bioavailability ([1]; po, i.g. (3 mg/kg)): ≥ 98%
- AUC(0-t) ([1]; po, i.g. (3 mg/kg)): 2180 ± 672 ng·h/mL

Compound: Cc1nc(-c2nnn(C)c2CNC(=O)O[C@H]2C[C@@H](OC(F)(F)F)C2)ccc1O[C@H]1CCC[C@H](C(=O)O)C1 [Compound 41]
- IC50 (LPAR1; [3]): < 10 nM

Compound: Cc1nc(-c2nnn(C)c2COC(=O)N(C)CC2CC(=C(F)F)C2)ccc1O[C@H]1CCC[C@H](C(=O)O)C1 (stereo partly shown) [Compound 13]
- IC50 (LPAR1; [3]): 10 to 50 nM

Compound: Cc1nc(-c2nnn(C)c2CNC(=O)OC2CC(=C(F)F)C2)ccc1OC1CCCCC(C(=O)O)C1 (single isomer, unassigned) [Compound 48-2]
- IC50 (LPAR1; [3]): 10 to 50 nM

Compound: C=C1CC(N(C)C(=O)OCc2c(-c3ccc(NC(=O)C4C(C(=O)O)C4(F)F)c(C)n3)nnn2C)C1 (single isomer, unassigned) [Compound 34-2]
- IC50 (LPAR1; [3]): < 10 nM

Compound: C=C1CC(N(C)C(=O)OCc2c(-c3ccc(N[C@H]4CCC[C@H](C(=O)O)C4)c(C)n3)nnn2C)C1 [Compound 21]
- IC50 (LPAR1; [3]): < 10 nM

Compound: C=C1CC(N(C)C(=O)OCc2c(-c3ccc(OCC4C(C(=O)O)C4(F)F)c(C)n3)nnn2C)C1 (stereo not shown) [Compound 25]
- IC50 (LPAR1; [3]): < 10 nM

Compound: CC(C)=C1CC(N(C)C(=O)OCc2c(-c3ccc(O[C@H]4CCC[C@H](C(=O)O)C4)c(C)n3)nnn2C)C1 (stereo partly shown) [Compound 18]
- IC50 (LPAR1; [3]): < 10 nM

Compound: Cc1nc(-c2nnn(C)c2COC(=O)N(C)[C@H]2C[C@@H](OC(F)(F)F)C2)ccc1O[C@H]1CCC[C@H](C(=O)O)C1 [Compound 30]
- IC50 (LPAR1; [3]): < 10 nM

Compound: Cc1nc(-c2nnn(C)c2CNC(=O)O[C@H]2C[C@H](OC(F)(F)F)C2)ccc1O[C@H]1CCC[C@H](C(=O)O)C1 [Compound 42]
- IC50 (LPAR1; [3]): < 10 nM

Compound: Cc1nc(-c2nnn(C)c2COC(=O)N(C)[C@H]2C[C@H](OC(F)(F)F)C2)ccc1O[C@H]1CCC[C@H](C(=O)O)C1 [Compound 31]
- IC50 (LPAR1; [3]): < 10 nM

Compound: C=C1CC(N(C)C(=O)OCc2c(-c3ccc(OCC4C(C(=O)O)C4(F)F)c(C)n3)nnn2C)C1 (single isomer, unassigned) [Compound 32-1]
- IC50 (LPAR1; [3]): < 10 nM

Compound: Cc1nc(-c2nnn(C)c2CNC(=O)OC2CC(=C(F)F)C2)ccc1OCCC1(C(=O)O)CC1 (stereo not shown) [Compound 47]
- pharmacokinetic characteristics in mice [1]: excellent pharmacokinetic characteristics
- C0 or Cmax ([1]; i.g. (3 mg/kg)): 566 ± 122 ng/mL
- C0 or Cmax ([1]; i.v. (1 mg/kg)): 1361 ± 179 ng/mL
- AUC(0-t) ([1]; iv, i.v. (1 mg/kg)): 1000 ± 333 ng·h/mL
- clearance ([1]; iv, i.v. (1 mg/kg)): 16.8 ± 5.7 mL/min/kg
- Vd ([1]; iv, i.v. (1 mg/kg)): 5.4 ± 1.4 L/kg
- bioavailability ([1]; po, i.g. (3 mg/kg)): 91.3%
- AUC(0-t) ([1]; po, i.g. (3 mg/kg)): 2740 ± 325 ng·h/mL
- AUC(0-t) ([2]; rat, iv, i.v. (1 mg/kg)): 2850 ± 532 ng·h/mL
- clearance ([2]; rat, iv, i.v. (1 mg/kg)): 5.95 ± 1.2 mL/min/kg
- Vd ([2]; rat, iv, i.v. (1 mg/kg), read-out: Vdss): 0.825 ± 0.027 L/kg
- bioavailability ([2]; rat, po, i.g. (3 mg/kg)): ≥ 98%
- AUC(0-t) ([2]; rat, po, i.g. (3 mg/kg)): 12600 ± 1320 ng·h/mL
- C0 or Cmax ([2]; i.g. (3 mg/kg)): 3060 ± 457 ng/mL
- C0 or Cmax ([2]; i.v. (1 mg/kg)): 3233 ± 495 ng/mL

Compound: Cc1nc(-c2nnn(C)c2COC(=O)N(C)OC2CCC2)ccc1O[C@H]1CCC[C@H](C(=O)O)C1 [Compound 15]
- IC50 (LPAR1; [3]): 10 to 50 nM

Compound: C=C1CCC(CN(C)C(=O)OCc2c(-c3ccc(O[C@H]4CCC[C@H](C(=O)O)C4)c(C)n3)nnn2C)CC1 [Compound 19]
- IC50 (LPAR1; [3]): < 10 nM
- IC50 (LPAR1; [4]): 2 nM
